Measured values reported in paper PMC8901636, “Preclinical studies of Flonoltinib Maleate, a novel JAK2/FLT3 inhibitor, in treatment of JAK2^V617F-induced myeloproliferative neoplasms” (Blood Cancer Journal, 2022).
Read-outs that look alike come from different tables or passages of the source.

Key:
[1] = system: normal human CD34^+ cells; assay: Normal human CD34+ cells from PB mononuclear cells of healthy donors; format: cell-based; settings: 48 h
Method: (§1) To further understand the effect of FM on normal mice and normal human CD34^+ cells, we conducted a further analysis on CD34^+ cells. For normal mice, we measured the proportion of CD34^+ in the peripheral blood of BALB/c mice on Day 0, and then mice were treated with FM 30 mg/kg p.o. twice a day. […] To investigate the effect of FM on normal human CD34^+ cells, we collected mononuclear cells of PB acquired from healthy donors. […] Therefore, in the future phase I clinical trials, we should examine the myelosuppressive effects of FM in patients with MPN.
(§2) (A) Normal BALB/c mice were treated with vehicle and FM 30mg/kg p.o. twice a day. FACS analysis of the percentage of CD34^+ cells on Day 0, 7, 14 and 21 (n = 7). (B) Mononuclear cells were isolated from the PB of healthy donors and CD34^+ cells were analyzed after incubated with FM after 48h.

Ba/F3-FLT3-ITD^D835V = assay: MTT assay for cell proliferation; format: cell-based, Murine; settings: Mus musculus, 72 h, read-out: IC50(μM) ± SD, tumor cell proliferation
Method: (§4) For in vitro inhibition assays, cells were seeded in 96-well culture plates with a density of 15,000–20,000 cells/well after the cells reached 70–90% confluence. […] MTT (3-(4, 5-dimethylthiazol-2-yl)-2, 5-diphenyltetrazolium bromide) (Cat. No. 1334GR001; BioFroxx) assay was conducted in order to examine viability. The IC50 values were fitted using GraphPad Prism 7.0.

CD34^+ cells = assay: CD34+ cells in peripheral blood of normal mice; format: in vivo; settings: normal BALB/c mice; 30 mg/kg p.o. twice a day; Day 0-21
Method: as §1, §2

[2] = system: FLT3 mutant tumor cell lines; assay: MTT assay for cell proliferation, summary of panel; format: cell-based; settings: summary of Table S7
Method: (§3) For in vitro inhibition assays, cells were seeded in 96-well culture plates with a density of 15,000–20,000 cells/well after the cells reached 70–90% confluence. After overnight incubation, the cells received a supplement of serial concentrations of FM and underwent 72 h incubation at 37 °C under 5% CO2. MTT (3-(4, 5-dimethylthiazol-2-yl)-2, 5-diphenyltetrazolium bromide) (Cat. No. 1334GR001; BioFroxx) assay was conducted in order to examine viability. The IC50 values were fitted using GraphPad Prism 7.0.

[3] = system: JAK2^V617F mutant cell lines; assay: MTT assay for cell proliferation, summary of panel; format: cell-based; settings: summary of Table S7; read-out: anti-proliferative IC50 on JAK2^V617F mutant cell lines
Method: as §3

TYK2 = TYK2 (Homo sapiens, UniProt P29597); assay: In vitro kinase assay
Ba/F3-FLT3-ITD = assay: MTT assay for cell proliferation; format: cell-based, Murine; settings: Mus musculus, Ba/F3 FLT3-ITD, 72 h, read-out: IC50(μM) ± SD, tumor cell proliferation
Method: as §4

Ba/F3-EPOR = assay: MTT assay for cell proliferation; format: cell-based, Murine; settings: Mus musculus, 72 h, read-out: IC50(μM) ± SD, tumor cell proliferation
Method: as §4

[4] = PK and tissue distribution after single oral administration in Ba/F3-EPOR-JAK2^V617F tumor-bearing mice; format: in vivo; settings: for Kp: spleen and plasma, po
FLT3 = FLT3 (Homo sapiens, UniProt P36888); assay: In vitro kinase assay
JAK3 = JAK3 (Homo sapiens, UniProt P52333); assay: In vitro kinase assay
Ba/F3-JAK2^WT = assay: MTT assay for cell proliferation; format: cell-based, Murine; settings: Mus musculus, 72 h, read-out: IC50(μM) ± SD, tumor cell proliferation
Method: as §4

Ba/F3-FLT3-ITD^F691 = assay: MTT assay for cell proliferation; format: cell-based, Murine; settings: Mus musculus, 72 h, read-out: IC50(μM) ± SD, tumor cell proliferation
Method: as §4

Ba/F3-EPOR-JAK2^V617F = assay: MTT assay for cell proliferation; format: cell-based, Murine; settings: Mus musculus
Method: as §4

JAK2/JAK2 signaling = assay: Cytokine-stimulated cell-based assay, GM-CSF-induced p-STAT5; settings: western blotting
JAK2^V617F = JAK2^V617F bone marrow transplantation (BMT) myelofibrosis model; format: in vivo, BALB/c mice; settings: for inhibition of splenomegaly: figure prints it with a minus sign over Spleen Wight (mg); for median survival time: vehicle 133.5 days; for BM Reticulin, fibrosis grade: bone marrow, WHO grading, vehicle MF-2
MV-4-11 = assay: MTT assay for cell proliferation; format: cell-based; settings: Homo sapiens, MV4-11, 72 h, read-out: IC50(μM) ± SD, tumor cell proliferation
Method: as §4

HEL = assay: MTT assay for cell proliferation; format: cell-based; settings: Homo sapiens, 72 h, read-out: IC50(μM) ± SD, tumor cell proliferation
Method: as §4

[5] = BALB/c nude, mouse, brain, oral, 30 mg/kg, single, read-out: FM concentration, Brain
[6] = BALB/c nude, mouse, heart, oral, 30 mg/kg, single, read-out: FM concentration, Heart
[7] = BALB/c nude, mouse, intestine, oral, 30 mg/kg, single, read-out: FM concentration, Intestine
[8] = BALB/c nude, mouse, kidney, oral, 30 mg/kg, single, read-out: FM concentration, Kidney
[9] = BALB/c nude, mouse, liver, oral, 30 mg/kg, single, read-out: FM concentration, Liver
[10] = BALB/c nude, mouse, lung, oral, 30 mg/kg, single, read-out: FM concentration, Lung
[11] = BALB/c nude, mouse, muscle, oral, 30 mg/kg, single, read-out: FM concentration, Muscle
[12] = BALB/c nude, mouse, plasma, oral, 30 mg/kg, single, read-out: FM concentration, Plasma
[13] = BALB/c nude, mouse, spleen, oral, 30 mg/kg, single, read-out: FM concentration, Spleen
[14] = BALB/c nude, mouse, stomach, oral, 30 mg/kg, single, read-out: FM concentration, Stomach
[15] = BALB/c nude, mouse, Plasma, single oral 30 mg/kg
[16] = BALB/c nude, mouse, spleen, single oral 30 mg/kg

TYK2, sequence (P29597 whole entry): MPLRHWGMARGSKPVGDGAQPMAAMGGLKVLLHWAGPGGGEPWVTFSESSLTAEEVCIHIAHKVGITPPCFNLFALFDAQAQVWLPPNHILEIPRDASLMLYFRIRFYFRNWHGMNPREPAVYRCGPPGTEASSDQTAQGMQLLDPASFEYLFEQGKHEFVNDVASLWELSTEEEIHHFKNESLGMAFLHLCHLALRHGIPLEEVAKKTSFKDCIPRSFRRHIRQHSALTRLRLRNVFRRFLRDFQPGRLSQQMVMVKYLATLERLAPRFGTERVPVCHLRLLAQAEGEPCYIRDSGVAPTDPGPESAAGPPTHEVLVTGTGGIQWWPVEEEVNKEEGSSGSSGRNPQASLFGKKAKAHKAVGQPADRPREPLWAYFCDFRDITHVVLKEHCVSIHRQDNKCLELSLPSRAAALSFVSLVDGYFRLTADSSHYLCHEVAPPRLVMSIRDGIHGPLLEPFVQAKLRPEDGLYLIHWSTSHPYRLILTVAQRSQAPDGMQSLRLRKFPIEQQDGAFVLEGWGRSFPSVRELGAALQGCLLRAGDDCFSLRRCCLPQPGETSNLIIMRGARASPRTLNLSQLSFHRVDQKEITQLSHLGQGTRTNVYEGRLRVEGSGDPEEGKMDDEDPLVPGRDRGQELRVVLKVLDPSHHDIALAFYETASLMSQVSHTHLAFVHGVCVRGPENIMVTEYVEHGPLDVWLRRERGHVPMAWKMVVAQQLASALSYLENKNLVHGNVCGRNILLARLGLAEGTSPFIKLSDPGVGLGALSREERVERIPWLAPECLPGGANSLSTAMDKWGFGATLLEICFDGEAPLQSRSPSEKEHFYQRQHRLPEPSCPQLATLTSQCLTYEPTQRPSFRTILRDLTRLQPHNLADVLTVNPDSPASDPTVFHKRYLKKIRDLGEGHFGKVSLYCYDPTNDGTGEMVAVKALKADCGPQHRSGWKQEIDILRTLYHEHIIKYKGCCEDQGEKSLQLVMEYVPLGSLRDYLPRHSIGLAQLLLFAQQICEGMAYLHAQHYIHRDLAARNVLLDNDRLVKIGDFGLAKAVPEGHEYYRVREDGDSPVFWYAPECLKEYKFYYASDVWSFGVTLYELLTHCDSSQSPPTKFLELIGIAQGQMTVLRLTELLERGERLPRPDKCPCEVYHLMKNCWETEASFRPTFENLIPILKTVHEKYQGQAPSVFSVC
FLT3, sequence (P36888 27-993): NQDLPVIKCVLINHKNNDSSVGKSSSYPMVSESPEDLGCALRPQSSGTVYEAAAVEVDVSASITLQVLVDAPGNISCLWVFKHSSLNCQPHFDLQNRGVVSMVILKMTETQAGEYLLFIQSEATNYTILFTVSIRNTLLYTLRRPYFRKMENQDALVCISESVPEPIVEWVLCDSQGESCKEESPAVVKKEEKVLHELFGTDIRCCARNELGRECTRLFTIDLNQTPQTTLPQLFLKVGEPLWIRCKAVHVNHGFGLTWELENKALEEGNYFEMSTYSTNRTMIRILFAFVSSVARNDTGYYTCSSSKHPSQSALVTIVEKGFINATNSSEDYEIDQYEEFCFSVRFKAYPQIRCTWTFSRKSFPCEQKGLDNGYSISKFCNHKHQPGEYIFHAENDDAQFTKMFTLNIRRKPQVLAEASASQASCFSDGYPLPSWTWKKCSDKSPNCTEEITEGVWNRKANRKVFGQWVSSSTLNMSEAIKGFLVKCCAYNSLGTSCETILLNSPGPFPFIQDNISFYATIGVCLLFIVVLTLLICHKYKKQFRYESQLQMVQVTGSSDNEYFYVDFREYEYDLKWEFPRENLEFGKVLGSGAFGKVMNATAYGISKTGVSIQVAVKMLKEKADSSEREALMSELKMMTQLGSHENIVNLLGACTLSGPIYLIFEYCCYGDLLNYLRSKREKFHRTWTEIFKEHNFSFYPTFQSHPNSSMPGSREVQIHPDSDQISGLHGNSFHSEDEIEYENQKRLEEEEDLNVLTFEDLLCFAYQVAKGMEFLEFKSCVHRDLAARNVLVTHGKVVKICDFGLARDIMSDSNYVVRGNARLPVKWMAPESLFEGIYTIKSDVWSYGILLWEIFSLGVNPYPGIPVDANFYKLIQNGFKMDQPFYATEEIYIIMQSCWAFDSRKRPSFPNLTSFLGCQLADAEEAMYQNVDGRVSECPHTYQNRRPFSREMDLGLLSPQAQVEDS
JAK3, sequence (P52333 whole entry): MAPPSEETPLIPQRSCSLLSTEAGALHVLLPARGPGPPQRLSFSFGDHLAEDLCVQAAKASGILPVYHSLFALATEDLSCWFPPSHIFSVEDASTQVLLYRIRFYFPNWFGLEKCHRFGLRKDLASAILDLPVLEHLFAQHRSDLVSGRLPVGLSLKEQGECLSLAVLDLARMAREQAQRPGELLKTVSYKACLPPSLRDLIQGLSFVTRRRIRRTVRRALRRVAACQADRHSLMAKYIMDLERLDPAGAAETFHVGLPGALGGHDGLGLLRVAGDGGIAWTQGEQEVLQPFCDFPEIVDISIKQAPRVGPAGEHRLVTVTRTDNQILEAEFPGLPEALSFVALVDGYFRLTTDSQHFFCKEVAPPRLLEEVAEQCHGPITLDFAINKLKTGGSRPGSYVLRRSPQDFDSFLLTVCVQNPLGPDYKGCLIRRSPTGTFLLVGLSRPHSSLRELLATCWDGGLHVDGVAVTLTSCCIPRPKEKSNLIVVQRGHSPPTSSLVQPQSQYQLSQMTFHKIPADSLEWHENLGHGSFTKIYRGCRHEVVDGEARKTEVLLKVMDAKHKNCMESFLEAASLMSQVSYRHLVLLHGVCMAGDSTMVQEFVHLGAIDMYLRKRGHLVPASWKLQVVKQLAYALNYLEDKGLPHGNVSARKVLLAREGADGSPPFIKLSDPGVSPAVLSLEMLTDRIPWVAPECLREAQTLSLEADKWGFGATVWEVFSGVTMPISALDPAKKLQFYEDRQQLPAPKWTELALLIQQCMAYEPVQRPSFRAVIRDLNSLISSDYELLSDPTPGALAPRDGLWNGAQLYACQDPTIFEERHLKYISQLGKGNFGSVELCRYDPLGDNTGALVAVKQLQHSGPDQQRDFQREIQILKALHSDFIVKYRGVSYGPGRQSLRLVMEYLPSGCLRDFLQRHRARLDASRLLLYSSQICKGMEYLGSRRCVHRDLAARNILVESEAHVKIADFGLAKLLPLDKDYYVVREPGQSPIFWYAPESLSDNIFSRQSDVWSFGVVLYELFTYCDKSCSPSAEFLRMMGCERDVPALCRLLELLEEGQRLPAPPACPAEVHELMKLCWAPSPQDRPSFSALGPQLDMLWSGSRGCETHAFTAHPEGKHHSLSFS

For Cc1cnc(Nc2ccc(N3CCC(N(C)CCO)CC3)c(F)c2)nc1-c1cnn(C(C)C)c1 [FM, 2-((1-(2-fluoro-4-((4-(1-isopropyl-1H-pyrazol-4-yl)-5-methylpyrimidin-2-yl)amino)phenyl)piperidin-4-yl)(methyl)amino)ethan-1-ol], the “effect on normal human CD34^+ cells” value [1] was “general inhibitory effect”, the IC50 (Ba/F3-FLT3-ITD^D835V) was 0.1 ± 0.06 µM and the “CD34^+ cells in peripheral blood” value (CD34^+ cells) was “significantly inhibited”. It also gave an IC50 [2] of less than 0.1 µM, an IC50 [3] of less than 0.5 µM and an IC50 (TYK2) of 0.065 µM. The IC50 (Ba/F3-FLT3-ITD) was 0.12 ± 0.01 µM, the IC50 (Ba/F3-EPOR) was 0.55 ± 0.13 µM and the “drug concentration in the spleen” value ([4]; 8 h after single oral 30 mg/kg, by calculation) was 2416 ± 1657 nmol/kg. The concentration at 0.5 h [4, 5] was 354 ± 77.1 ng/g, the concentration at 2 h [4, 5] was 309 ± 40.5 ng/g and the concentration at 4 h [4, 5] was 157 ± 58.3 ng/g. For the same molecule, the concentration at 8 h ([4]; BALB/c nude, mouse, brain, oral, 30 mg/kg, single, 8 h, read-out: FM concentration, Brain) was 38.4 ± 28.5 ng/g, the concentration at 0.5 h [4, 6] was 3390 ± 184 ng/g and the concentration at 2 h [4, 6] was 1650 ± 381 ng/g. It also gave a concentration at 4 h [4, 6] of 864 ± 418 ng/g, a concentration at 8 h ([4]; BALB/c nude, mouse, heart, oral, 30 mg/kg, single, 8 h, read-out: FM concentration, Heart) of 199 ± 145 ng/g and a concentration at 0.5 h [4, 7] of 14900 ± 11400 ng/g. The concentration at 2 h [4, 7] was 6250 ± 3230 ng/g, the concentration at 4 h [4, 7] was 8490 ± 2240 ng/g and the concentration at 8 h ([4]; BALB/c nude, mouse, intestine, oral, 30 mg/kg, single, 8 h, read-out: FM concentration, Intestine) was 4360 ± 4050 ng/g. For the same molecule, the concentration at 0.5 h [4, 8] was 12100 ± 1260 ng/g, the concentration at 2 h [4, 8] was 6220 ± 855 ng/g and the concentration at 4 h [4, 8] was 2410 ± 1010 ng/g. The concentration at 8 h ([4]; BALB/c nude, mouse, kidney, oral, 30 mg/kg, single, 8 h, read-out: FM concentration, Kidney) was 1050 ± 767 ng/g, the concentration at 0.5 h [4, 9] was 12800 ± 3700 ng/g and the concentration at 2 h [4, 9] was 6530 ± 2920 ng/g. For the same molecule, the concentration at 4 h [4, 9] was 3820 ± 1480 ng/g, the concentration at 8 h ([4]; BALB/c nude, mouse, liver, oral, 30 mg/kg, single, 8 h, read-out: FM concentration, Liver) was 845 ± 662 ng/g and the concentration at 0.5 h [4, 10] was 11600 ± 2960 ng/g. The concentration at 2 h [4, 10] was 3820 ± 739 ng/g, the concentration at 8 h ([4]; BALB/c nude, mouse, lung, oral, 30 mg/kg, single, 8 h, read-out: FM concentration, Lung) was 603 ± 481 ng/g and the concentration at 0.5 h [4, 11] was 633 ± 619 ng/g. For the same molecule, the concentration at 2 h [4, 11] was 217 ± 116 ng/g, the concentration at 4 h [4, 11] was 152 ± 73.9 ng/g and the concentration at 8 h ([4]; BALB/c nude, mouse, muscle, oral, 30 mg/kg, single, 8 h, read-out: FM concentration, Muscle) was 43.1 ± 42 ng/g. It also gave a concentration at 0.25 h [4, 12] of 653 ± 108 ng/mL, a concentration at 0.5 h [4, 12] of 857 ± 74.5 ng/mL and a concentration at 1 h [4, 12] of 922 ± 302 ng/mL. For the same molecule, the concentration at 2 h [4, 12] was 458 ± 88.2 ng/mL, the concentration at 4 h [4, 12] was 248 ± 80.8 ng/mL and the concentration at 8 h ([4]; BALB/c nude, mouse, plasma, oral, 30 mg/kg, single, 8 h, read-out: FM concentration, Plasma) was 59.9 ± 50 ng/mL. For the same molecule, the concentration at 12 h ([4]; BALB/c nude, mouse, plasma, oral, 30 mg/kg, single, 12 h, read-out: FM concentration, Plasma) was 61.4 ± 64.3 ng/mL, the Kp ([4]; BALB/c nude, mouse, 30 mg/kg, AUC(0-24h) of spleen higher than that of plasma, single oral 30 mg/kg) was 15.3 and the Kp ([4]; BALB/c nude, mouse, 30 mg/kg, single oral 30 mg/kg, read-out: Cmax of spleen higher than that of plasma) was 11.7. It also gave a concentration at 0.25 h [4, 13] of 5630 ± 710 ng/g, a concentration at 0.5 h [4, 13] of 10400 ± 2660 ng/g and a concentration at 1 h [4, 13] of 9930 ± 3970 ng/g. It also gave a concentration at 2 h [4, 13] of 8530 ± 1510 ng/g, a concentration at 4 h [4, 13] of 3810 ± 1880 ng/g and a concentration at 8 h ([4]; BALB/c nude, mouse, spleen, oral, 30 mg/kg, single, 8 h, read-out: FM concentration, Spleen) of 1410 ± 968 ng/g. For the same molecule, the concentration at 12 h ([4]; BALB/c nude, mouse, spleen, oral, 30 mg/kg, single, 12 h, read-out: FM concentration, Spleen) was 358 ± 228 ng/g, the concentration at 24 h ([4]; BALB/c nude, mouse, spleen, oral, 30 mg/kg, single, 24 h, read-out: FM concentration, Spleen) was 32.6 ± 13.3 ng/g and the concentration at 8 h ([4]; BALB/c nude, mouse, spleen, 8 h after single oral 30 mg/kg, converted, read-out: drug concentration in the spleen) was roughly 2420 nM. For the same molecule, the concentration at 12 h ([4]; BALB/c nude, mouse, spleen, 12 h after single oral 30 mg/kg, converted, read-out: concentration of FM in spleen) was roughly 614 nM, the concentration at 0.5 h [4, 14] was 30300 ± 18400 ng/g and the concentration at 2 h [4, 14] was 30500 ± 29000 ng/g. It also gave a concentration at 4 h [4, 14] of 17700 ± 10900 ng/g, a concentration at 8 h ([4]; BALB/c nude, mouse, stomach, oral, 30 mg/kg, single, 8 h, read-out: FM concentration, Stomach) of 6840 ± 10500 ng/g and an AUC(0-t) [4, 15] of 2990 ± 558 ng·h/mL. For the same molecule, the Cmax [4, 15] was 1030 ± 174 ng/mL, the half-life [4, 15] was 2.31 ± 0.79 h and the Cmax [4, 16] was 12000 ± 3470 ng/g. The half-life [4, 16] was 2.71 ± 0.51 h, the Cl ([4]; Plasma, single oral 30 mg/kg) was 168.7 ± 36.2 mL/min/kg and the Vdss ([4]; Plasma, single oral 30 mg/kg) was 32.84 ± 10.12 L/kg. For the same molecule, the IC50 (FLT3) was 0.015 µM, the IC50 (JAK3) was 0.557 µM and the IC50 (Ba/F3-JAK2^WT) was 0.39 ± 0.2 µM. It also gave an IC50 (Ba/F3-FLT3-ITD^F691) of 0.15 ± 0.02 µM, an IC50 (Ba/F3-EPOR-JAK2^V617F; 72 h, read-out: IC50(μM) ± SD, tumor cell proliferation) of 0.78 ± 0.21 µM and an IC50 (Ba/F3-EPOR-JAK2^V617F; as quoted in PK/PD text, read-out: IC50 value of Ba/F3-EPOR-JAK2^V617F cells in vitro) of 0.79 ± 0.01 µM. The IC50 (JAK2/JAK2 signaling) was 0.12 µM, the inhibition of splenomegaly (JAK2^V617F; 15 mg/kg bid p.o.) was 97.11% and the median survival time (JAK2^V617F; 15 mg/kg bid p.o.) was greater than 180 days. For the same molecule, the inhibition of splenomegaly (JAK2^V617F; 30 mg/kg bid p.o.) was 101.62%, the median survival time (JAK2^V617F; 30 mg/kg bid p.o.) was greater than 180 days and the inhibition of splenomegaly (JAK2^V617F; 45 mg/kg bid p.o.) was 101.24%. For the same molecule, the median survival time (JAK2^V617F; 45 mg/kg bid p.o.) was greater than 180 days, the “BM Reticulin, fibrosis grade” value (JAK2^V617F; 30 mg/kg) was “non-MF” and the “BM Reticulin, fibrosis grade” value (JAK2^V617F; 45 mg/kg) was “non-MF”. For the same molecule, the IC50 (MV-4-11) was 0.01 ± 0.01 µM and the IC50 (HEL) was 0.26 ± 0.2 µM.
